Reference: patent publication US7361371B2, “Extract of petasites japonicus having neuroprotective effect and antioxidant activity” (Industry & Acacemic Cooreration in Chungnam National …, priority 2003, dated 2008)

Columns and labels:
[1] = test system: lipid peroxidation in the brain of a mouse; assay: Inhibition of Fe2+/ascorbic acid-induced lipid peroxidation (TBARS) in mouse brain homogenate; type: biochemical; settings: Fe2+ 0.2 mM / ascorbic acid 25 mM, 37° C., 30 minutes, TBARS at 533 nm
Protocol: Concretely, the brain of an ICR male mouse (22.5±2.5 g, 6 to 8 weeks old) was removed and washed with 0.15 M KCl solution containing 2 mm EDTA. The washed brain was ground using a tissue homogenizer (Teflon pestle). To 1 ml of the ground brain, 1 ml of 8.1% SDS, 2 ml of 20% acetic acid and 1 ml of 0.75% thiobarbituric acid (TBA) were added. The resulting mixture was boiled, cooled in ice for 30 minutes and centrifuged at 14,000 rpm for 10 minutes to obtain the supernatant. To the supernatant, 1 ml of each of the various solvent fractions of Petasites japonicus from Example 1 was added and Fe^2+ 0.2 mM and ascorbic acid 25 mM were added. The resulting mixture was thoroughly mixed while stirring at 37° C. After 30 minutes, to the mixture, 15% trichloroacetic acid (TCA) and 0.75% TBA were added in the same volume as the mixture. The reaction was boiled for 15 minutes, stored in ice for 5 minutes and centrifuged at 3,000 rpm for 10 minutes to remove corpuscolates. The supernatant was taken and measured for absorption at 533 nm (Bidlack, W. T., and Tappel, A. L., Lipids, 1973, 8, 177-182). Malondialdehyde (Gutteridge, J. M. C., Analytical Biochemistry, 1975, 69, 518-526) produced by hydrolysis of 1,1,3,3,-tetraethoxypropane) was used for calibration.
Asample: absorption of a mixture of brain hydrogenate, ascorbic acid/Fe^2+ and Petasites japonicus extract at 533 nm, […]

[2] = test system: pyramidal cells in CA1 and CA3 sites of the hippocampus; assay: Tissue biopsy: surviving nerve cells in hippocampus after KA; type: in vivo, mouse; settings: brain removed on the next day after KA; butanol fraction pretreated
Source text: Also, the brain removed on the next day after the administration of KA was subjected to a tissue biopsy to examine damage of pyramidal cells in CA1 and CA3 sites of the hippocampus.

[3] = Change in body weight and brain weight of mice
Protocol: (§1) Male ICR mice (22.5±2.5 g, 6 to 8 weeks old) were freely fed with solid feed for experimental animals (SamYang Co. Korea) in a polycarbonate cage (5 animals per cage). The mice were bred under conditions including a temperature and a relative humidity maintained at 23±3° C. and 60±10%, respectively, a light-dark cycle of 12 hours and illumination of 150 to 200 Lux. Only the animals which had been judged to be healthy during the acclimation period were randomly assigned to groups for the experiment. The breeding and experiment of animals were performed according to Guide for care and use of laboratory animal (National Institutes of Health Guidelines, 1985, 85-23). The groups of mice were unspecifically grouped and the body weight was measured every day. […] After the KA injection, the behavioral change of the mice was monitored by the method of Kondo et al. (Journal of Cerebral Blood Flow and Metabolism, 1997, 17, 241-256). Also, on the next day after the KA injection, the brains were removed from the mice, frozen in liquid nitrogen and stored at −80° C. for 48 hours at maximum until used.

glutathione (GSH) = type: in vivo, mouse; settings: KA administered alone
Protocol: About 0.2 g of brain tissue from each brain was put into cold 6% metaphosphoric acid solution and crushed using a cold ceramic percussion motor. The crushed solution was centrifuged at 4° C., 27,000 g for 20 minutes. The supernatant was taken. To 0.05 Ml of the supernatant, 0.39 Ml of 100 mM phosphate buffer (pH 7.4) containing 5 mM EDTA, 0.025 ml of 10 mM DTNB (5,5-dithiobis-(2-nitrobenzoic acid)) and 0.08 ml of 5 mM NADPH were added and equilibrated at 25° C. for 3 minutes. Then, 2 units of glutathione (GSH) reductase was added thereto to initiate a reaction. The formation of 2-nitro-5-thiobenzoic acid was monitored by measuring the adsorption at 412 nm using a UV/VIS spectrophotometer (Roberts, J. C. and Francetic, D. J., Analytical Biochemistry, 1993, 211, 183-187; Raymond, C. et al., Journal of Nutrition, 1995, 125, 3062-3070). The total GSH amount contained in a sample was determined from a standard curve constructed by plotting the adsorption at 412 nm versus the known amount of GSH. The amount of GSH was shown by an average±S.E.M of data obtained by performing the experiment using 4 to 8 mice 3 times.

glutathione peroxidase = type: in vivo, mouse; settings: KA alone or butanol fraction pre-administered; FIG. 6a
[4] = test system: ICR mice (KA-induced oxidative neurotoxicity); assay: Fatality rate of mice after kainic acid (KA) injection; type: in vivo, mouse
Protocol: KA, and KA and the butanol fraction of Petasites japonicus were administered and the fatality rate was measured.
The fractions were subjected to the same procedures as described above to measure the fatality rate.

[5] = test system: lipid peroxidation in brain tissue; assay: KA-induced lipid peroxidation (TBARS amount) in brain homogenate of treated mice; type: in vivo, mouse; settings: KA alone, or pre-treatment with butanol fraction 400 mg/kg, Fraction I or Fraction II
Protocol: Concretely, the brains were removed from mice
Brain tissue from each brain was crushed in 0.25M sucrose solution and the crushed brain homogenate was measured for the TBARS amount contained therein.

[6] = test system: ICR mice (neurotoxic behavior induced by KA); assay: Neuronal behavior change (tail arch, tremor, seizure) after KA; type: in vivo, mouse; settings: KA 44 mg/kg, fraction I or II 200 mg/kg
Protocol: as §1

[7] = KA 44 mg/kg, fraction I or II 200 mg/kg
[8] = KA 50 mg/kg, butanol fraction 400 mg/kg

O=C1O[C@H]([C@@H](O)CO)C(O)=C1O [Ascorbic acid]
IC50 (inhibition of lipid peroxidation) [1]: 790 µg/mL

C=C(C)[C@H]1CN[C@H](C(=O)O)[C@H]1CC(=O)O [KA, kainic acid]
Surviving nerve cells in the CA1 site of the hippocampus [2]: 18.5% | Surviving nerve cells in the CA3 site of the hippocampus [2]: 8.9% | Body weight change [3, 7]: 0.39 ± 0.29 g | Brain weight [3, 7]: 0.327 ± 0.0098 g | Final body weight [3, 7]: 29.88 ± 0.86 g | Initial body weight [3, 7]: 29.49 ± 0.91 g | Body weight change [3, 8]: 0.95 ± 0.385 g | Brain weight [3, 8]: 0.346 ± 0.0038 g | Final body weight [3, 8]: 32.34 ± 0.58 g | Initial body weight [3, 8]: 31.39 ± 0.49 g | Total GSH amount in the brain tissue (glutathione (GSH)): 20% | Glutathione peroxidase activity (in words) (glutathione peroxidase): reduced | Fatality rate ([4]; Exp. Group 1: KA 50 mg/kg intraperitoneal, butanol fraction 400 mg/kg oral once per day for 4 days before KA): 54% | Fatality rate ([4]; Exp. Group 2: KA 50 mg/kg intraperitoneal, butanol fraction 150 mg/kg oral once per day for 4 days before KA): 63.6% | Fatality rate [4, 7]: 54% | TBARS content of brain homogenate (in words) [5]: increased | Tail arch (upper value, unit not given) ([6]; stage 1): 12.4 ± 4.7 | Tail arch (value in brackets) ([6]; stage 1): (100%) | Tremor (upper value, unit not given) ([6]; stage 2): 16.7 ± 6.1 | Tremor (value in brackets) ([6]; stage 2): (100%) | Seizure (upper value, unit not given) ([6]; stage 3): 18.9 ± 19.5 | Seizure (value in brackets) ([6]; stage 3): (100%)
